Patent US4147778A, “Antibiotic baumycin complex and components thereof” (Zaidan Hojin Biseibutsu Kagaku Kenkyu Kai, priority 1976, dated 1979)
Values after ≈ are worked out from the molar mass of the structure shown. “Also recorded” adds a separate entry of the source. Where two headings read alike, the source gives them in different places.

What was measured:
B. cereus ATCC 9634 = assay: Minimum inhibitory concentration, broth dilution method; type: cell-based; conditions: for MIC: Bacillus cereus, ATCC9634, B. cereus ATCC 9634; for Minimum inhibitory concentration: B. cereus ATCC 9634
Description: (§1) The minimum inhibitory concentration of the present antibiotics as determined by the broth dilution method are shown in Table 1.

[1] = tested on: B. megarterium NRRL B-938; assay: as above; type: cell-based
Description: as §1

B. subtilis ATCC 6633 = assay: as above; type: cell-based; conditions: for Minimum inhibitory concentration: B. subtilis ATCC 6633
Description: as §1

[2] = tested on: Candida albicans IAM 4905; assay: as above; type: cell-based; conditions: for MIC: IAM4905, Candida albicans IAM 4905; for Minimum inhibitory concentration: Candida albicans IAM 4905
Description: as §1

Candida tropicalis = assay: as above; type: cell-based
Description: as §1

Coryne. bovis 1810 = assay: as above; type: cell-based
Description: as §1

Micrococcus flavs = assay: as above; type: cell-based
Description: as §1

[3] = tested on: Mycobacterium smegmatis ATCC 607; assay: as above; type: cell-based; conditions: for MIC: Mycolicibacterium smegmatis, ATCC607, Mycobacterium smegmatis ATCC 607; for Minimum inhibitory concentration: Mycobacterium smegmatis ATCC 607
Description: as §1

Proteus morganii = assay: as above; type: cell-based; conditions: for MIC: Morganella morganii
Description: as §1

[4] = tested on: Ps. fluorescens NIHJB-254; assay: as above; type: cell-based; conditions: for MIC: Pseudomonas fluorescens, NIHJB254, Ps. fluorescens NIHJB-254; for Minimum inhibitory concentration: Ps. fluorescens NIHJB-254
Description: as §1

Sarcina lutea ATCC 9341 = assay: as above; type: cell-based; conditions: for Minimum inhibitory concentration: Sarcina lutea ATCC 9341
Description: as §1

Staph. aureus FDA209P = assay: as above; type: cell-based; conditions: for MIC: Staphylococcus aureus, FDA209P
Description: as §1

Staph. aureus Smith = assay: as above; type: cell-based; conditions: for MIC: Staphylococcus aureus
Description: as §1

mouse L-1210 leukemia = assay: Prolongation of survival time of mice inoculated with L-1210 leukemia; type: in vivo, BDF1 mice; conditions: for Prolongation of the survival time T/C: BDF1 mice, 1 × 10^6 L-1210 cells i.p., day 30; for Inhibitory effect on mouse L-1210 leukemia: in words
Description: (§2) For example, BDF1 mice were inoculated intraperitoneally with 1 × 10^6 L-1210 cells/mouse and 24 hrs. after inoculation the drug was intraperitoneally injected once daily for 10 days consecutively. On day 30, the % of prolongation of the survival time to control was as follows: […]

[5] = Acute toxicity, LD50 upon intraperitoneal injection; type: in vivo
Description: The LD50 values upon intraperitoneal injection of the
antibiotics of the present invention are shown in the […]

Solubility = type: physicochemical
gram-positive bacteria = assay: Antimicrobial activity against gram-positive bacteria; type: cell-based
Description: as §1

animal tumors = assay: Inhibition of growth of animal tumors; type: in vivo; conditions: experimental animal tests
Description: as §2

[6] = Toxicity in experimental animal tests; type: in vivo
animal tumor systems = conditions: reported in J. Antibiotics 27:254-259 (1974) and others; cited from earlier work
[7] = 0.125 mg./kg./day i.p. once daily for 10 days
[8] = 0.25 mg./kg./day i.p. once daily for 10 days
[9] = 0.5 mg./kg./day i.p. once daily for 10 days
[10] = 1 mg./kg./day i.p. once daily for 10 days
[11] = 2 mg./kg./day i.p. once daily for 10 days
[12] = 4 mg./kg./day i.p. once daily for 10 days
[13] = 6 mg./kg./day i.p. once daily for 10 days
[14] = 8 mg./kg./day i.p. once daily for 10 days
[15] = in acidic water, methyl cellosolve, methanol, ethanol, n-propanol and n-butanol
[16] = in ethyl acetate, acetone, methylene chloride, chloroform, carbon tetrachloride, benzene, toluene, ethyl ether and n-hexane
[17] = 0.06 mg./kg./day i.p. once daily for 10 days
[18] = in acidic water, DMSO, methylcellosolve, methanol, ethanol, n-propanol, n-butanol, ethyl acetate, butyl acetate, acetone, methyl ethyl ketone, methylene chloride and chloroform
[19] = in n-hexane, cyclohexane and petroleum ether

COc1cccc2c1C(=O)c1c(O)c3c(c(O)c1C2=O)CC(O)(C(C)=O)CC3OC1CC(N)C(OC(CC(C)O)OC(C)C(=O)O)C(C)O1 (stereo not drawn) [BM-B1]
MIC (B. cereus ATCC 9634): 100 µg/mL (≈ 145 µM) | MIC [1]: 100 µg/mL (≈ 145 µM) | MIC (B. subtilis ATCC 6633; Bacillus subtilis, ATCC6633, B. subtilis ATCC 6633): 100 µg/mL (≈ 145 µM) | MIC ([2]; Candida albicans): 100 µg/mL (≈ 145 µM) | MIC (Candida tropicalis): 100 µg/mL (≈ 145 µM) | MIC (Coryne. bovis 1810; Corynebacterium bovis): 50 µg/mL (≈ 72.7 µM) | MIC (Micrococcus flavs; Micrococcus flavs, read-out: Minimum inhibitory concentration): 50 µg/mL (≈ 72.7 µM) | MIC [3]: 100 µg/mL (≈ 145 µM) | MIC (Proteus morganii): > 100 µg/mL | MIC [4]: 100 µg/mL (≈ 145 µM) | MIC (Sarcina lutea ATCC 9341; Micrococcus luteus, ATCC9341, Sarcina lutea ATCC 9341): 50 µg/mL (≈ 72.7 µM) | MIC (Staph. aureus FDA209P): 50 µg/mL (≈ 72.7 µM) | MIC (Staph. aureus Smith): 50 µg/mL (≈ 72.7 µM) | Prolongation of the survival time T/C (mouse L-1210 leukemia; [7]): 93% | Prolongation of the survival time T/C (mouse L-1210 leukemia; [8]): 99% | Prolongation of the survival time T/C (mouse L-1210 leukemia; [9]): 99% | Prolongation of the survival time T/C (mouse L-1210 leukemia; [10]): 105% | Prolongation of the survival time T/C (mouse L-1210 leukemia; [11]): 117% | Prolongation of the survival time T/C (mouse L-1210 leukemia; [12]): 136% | Prolongation of the survival time T/C (mouse L-1210 leukemia; [13]): 165% | Prolongation of the survival time T/C (mouse L-1210 leukemia; [14]): 147% | Inhibitory effect on mouse L-1210 leukemia (mouse L-1210 leukemia): marked inhibitory effects | LD50 ([5]; in vivo, ip, read-out: LD50): 40 to 60 mg/kg | Solubility (Solubility; [15]): Soluble | Solubility (Solubility; [16]): Insoluble | Solubility (Solubility; in water, listed as Baumycin B1): Insoluble | Antimicrobial activity (gram-positive bacteria; listed as Baumycin B1): inhibit the growth of gram-positive bacteria; also recorded: possess antimicrobial activity, especially against gram-positive bacteria | Inhibition of growth of animal tumors / antitumor activity (animal tumors; listed as Baumycin B1): inhibit the growth of various animal tumors; also recorded: marked antitumor activity; also recorded: marked inhibitory action against animal malignant tumors, especially ascitic and solid tumors | Toxicity [6]: low toxicity

COc1cccc2c1C(=O)c1c(O)c3c(c(O)c1C2=O)CC(O)(C(C)=O)CC3OC1CC(N)C(OC(CC(C)O)OC(C)CO)C(C)O1 (stereo not drawn) [BM-A1]
MIC (B. cereus ATCC 9634): 1.56 µg/mL (≈ 2.32 µM) | Minimum inhibitory concentration [1]: 1.56 µg/mL (≈ 2.32 µM) | Minimum inhibitory concentration (B. subtilis ATCC 6633): 0.78 µg/mL (≈ 1.16 µM) | MIC [2]: 100 µg/mL (≈ 148 µM) | MIC (Candida tropicalis): 100 µg/mL (≈ 148 µM) | Minimum inhibitory concentration (Coryne. bovis 1810): 1.56 µg/mL (≈ 2.32 µM) | MIC (Micrococcus flavs; Micrococcus, read-out: Minimum inhibitory concentration, Micrococcus flavs): 0.78 µg/mL (≈ 1.16 µM) | MIC [3]: 6.25 µg/mL (≈ 9.28 µM) | MIC (Proteus morganii): > 100 µg/mL | MIC [4]: > 100 µg/mL | Minimum inhibitory concentration (Sarcina lutea ATCC 9341): 0.78 µg/mL (≈ 1.16 µM) | MIC (Staph. aureus FDA209P): 1.56 µg/mL (≈ 2.32 µM) | MIC (Staph. aureus Smith): 0.78 µg/mL (≈ 1.16 µM) | Prolongation of the survival time T/C (mouse L-1210 leukemia; 0.004 mg./kg./day i.p. once daily for 10 days): 131% | Prolongation of the survival time T/C (mouse L-1210 leukemia; 0.008 mg./kg./day i.p. once daily for 10 days): 131% | Prolongation of the survival time T/C (mouse L-1210 leukemia; 0.015 mg./kg./day i.p. once daily for 10 days): 155% | Prolongation of the survival time T/C (mouse L-1210 leukemia; 0.03 mg./kg./day i.p. once daily for 10 days): 187% | Prolongation of the survival time T/C (mouse L-1210 leukemia; [17]): > 300% | Inhibitory effect on mouse L-1210 leukemia (mouse L-1210 leukemia): marked inhibitory effects | LD50 [5]: 1.5 to 2.5 mg/kg | Solubility (Solubility; [18]): Soluble | Solubility (Solubility; [19]): Insoluble | Solubility (Solubility; in water): Insoluble | Antimicrobial activity (gram-positive bacteria; listed as Baumycin A1): inhibit the growth of gram-positive bacteria; also recorded: possess antimicrobial activity, especially against gram-positive bacteria | Inhibition of growth of animal tumors / antitumor activity (animal tumors; listed as Baumycin A1): inhibit the growth of various animal tumors; also recorded: marked antitumor activity; also recorded: marked inhibitory action against animal malignant tumors, especially ascitic and solid tumors | Toxicity [6]: low toxicity

COc1cccc2c1C(=O)c1c(O)c3c(c(O)c1C2=O)CC(O)(C(C)=O)CC3OC1CC(N)C(OC(CC(C)O)OC(C)CO)C(C)O1 (stereo not drawn) [BM-A2]
Minimum inhibitory concentration (B. cereus ATCC 9634): 3.12 µg/mL (≈ 4.63 µM) | Minimum inhibitory concentration [1]: 6.25 µg/mL (≈ 9.28 µM) | Minimum inhibitory concentration (B. subtilis ATCC 6633): 3.12 µg/mL (≈ 4.63 µM) | Minimum inhibitory concentration [2]: 100 µg/mL (≈ 148 µM) | Minimum inhibitory concentration (Candida tropicalis): 100 µg/mL (≈ 148 µM) | Minimum inhibitory concentration (Coryne. bovis 1810): 6.25 µg/mL (≈ 9.28 µM) | Minimum inhibitory concentration (Micrococcus flavs; Micrococcus flavs): 1.56 µg/mL (≈ 2.32 µM) | Minimum inhibitory concentration [3]: 12.5 µg/mL (≈ 18.6 µM) | Minimum inhibitory concentration (Proteus morganii): > 100 µg/mL | Minimum inhibitory concentration [4]: 100 µg/mL (≈ 148 µM) | Minimum inhibitory concentration (Sarcina lutea ATCC 9341): 3.12 µg/mL (≈ 4.63 µM) | Minimum inhibitory concentration (Staph. aureus FDA209P): 3.12 µg/mL (≈ 4.63 µM) | Minimum inhibitory concentration (Staph. aureus Smith): 1.56 µg/mL (≈ 2.32 µM) | Prolongation of the survival time T/C (mouse L-1210 leukemia; [17]): 141% | Prolongation of the survival time T/C (mouse L-1210 leukemia; [7]): 151% | Prolongation of the survival time T/C (mouse L-1210 leukemia; [8]): 163% | Prolongation of the survival time T/C (mouse L-1210 leukemia; [9]): 173% | Prolongation of the survival time T/C (mouse L-1210 leukemia; [10]): 167% | Inhibitory effect on mouse L-1210 leukemia (mouse L-1210 leukemia): marked inhibitory effects | LD50 [5]: 15 to 20 mg/kg | Solubility (Solubility; [18]): Soluble | Solubility (Solubility; [19]): Insoluble | Solubility (Solubility; in water): Insoluble | Antimicrobial activity (gram-positive bacteria; listed as Baumycin A2): inhibit the growth of gram-positive bacteria; also recorded: possess antimicrobial activity, especially against gram-positive bacteria | Inhibition of growth of animal tumors / antitumor activity (animal tumors; listed as Baumycin A2): inhibit the growth of various animal tumors; also recorded: marked antitumor activity; also recorded: marked inhibitory action against animal malignant tumors, especially ascitic and solid tumors | Toxicity [6]: low toxicity

CC(=O)[C@]1(O)Cc2c(O)c3c(c(O)c2[C@@H](O[C@H]2C[C@H](N)[C@H](O)[C@H](C)O2)C1)C(=O)c1c(O)cccc1C3=O [carminomycin]
Activity in animal tumor systems (animal tumor systems): active in several animal tumor systems

COc1cccc2c1C(=O)c1c(O)c3c(c(O)c1C2=O)CC(O)(C(C)=O)CC3OC1CC(N)C(OC(CC(C)O)OC(C)C(=O)O)C(C)O1 (stereo not drawn) [BM-B2]
Minimum inhibitory concentration (B. cereus ATCC 9634): > 100 µg/mL | Minimum inhibitory concentration [1]: > 100 µg/mL | Minimum inhibitory concentration (B. subtilis ATCC 6633): > 100 µg/mL | Minimum inhibitory concentration [2]: > 100 µg/mL | Minimum inhibitory concentration (Candida tropicalis): > 100 µg/mL | Minimum inhibitory concentration (Coryne. bovis 1810): 50 µg/mL (≈ 72.7 µM) | Minimum inhibitory concentration (Micrococcus flavs; Micrococcus flavs): 50 µg/mL (≈ 72.7 µM) | Minimum inhibitory concentration [3]: > 100 µg/mL | Minimum inhibitory concentration (Proteus morganii): > 100 µg/mL | Minimum inhibitory concentration [4]: > 100 µg/mL | Minimum inhibitory concentration (Sarcina lutea ATCC 9341): 25 µg/mL (≈ 36.4 µM) | Minimum inhibitory concentration (Staph. aureus FDA209P): 100 µg/mL (≈ 145 µM) | Minimum inhibitory concentration (Staph. aureus Smith): 50 µg/mL (≈ 72.7 µM) | Prolongation of the survival time T/C (mouse L-1210 leukemia; [10]): 99% | Prolongation of the survival time T/C (mouse L-1210 leukemia; [11]): 99% | Prolongation of the survival time T/C (mouse L-1210 leukemia; [12]): 111% | Prolongation of the survival time T/C (mouse L-1210 leukemia; [13]): 135% | Prolongation of the survival time T/C (mouse L-1210 leukemia; [14]): 155% | Inhibitory effect on mouse L-1210 leukemia (mouse L-1210 leukemia): marked inhibitory effects | LD50 [5]: 75 to 100 mg/kg | Solubility (Solubility; [15]): Soluble | Solubility (Solubility; [16]): Insoluble | Solubility (Solubility; in water, listed as Baumycin B2): soluble | Antimicrobial activity (gram-positive bacteria; listed as Baumycin B2): inhibit the growth of gram-positive bacteria; also recorded: possess antimicrobial activity, especially against gram-positive bacteria | Inhibition of growth of animal tumors / antitumor activity (animal tumors; listed as Baumycin B2): inhibit the growth of various animal tumors; also recorded: marked antitumor activity; also recorded: marked inhibitory action against animal malignant tumors, especially ascitic and solid tumors | Toxicity [6]: low toxicity
